From patent publication US7915012B2, “Methods for screening for inhibitors of TRPV2 activation” (Korea University Industry and Academic Collaboration …, priority 2008, dated 2011)
Entries after “also recorded” stand apart in the source; their conditions may differ.

What was measured:
mTRPV3 = biological target: T1, mTRPV3 (Mus musculus, UniProt Q8K424, A9V); experiment: Fluo-3 calcium imaging in TRPV3 transfected HEK293T cell line; format: cell-based; settings: 100 μM probenecid
T1 construct: expressed in transfected cells; host or cells: HEK293T (ATCC CRL-11268)
T1 sequence (Q8K424 1-791 A9V): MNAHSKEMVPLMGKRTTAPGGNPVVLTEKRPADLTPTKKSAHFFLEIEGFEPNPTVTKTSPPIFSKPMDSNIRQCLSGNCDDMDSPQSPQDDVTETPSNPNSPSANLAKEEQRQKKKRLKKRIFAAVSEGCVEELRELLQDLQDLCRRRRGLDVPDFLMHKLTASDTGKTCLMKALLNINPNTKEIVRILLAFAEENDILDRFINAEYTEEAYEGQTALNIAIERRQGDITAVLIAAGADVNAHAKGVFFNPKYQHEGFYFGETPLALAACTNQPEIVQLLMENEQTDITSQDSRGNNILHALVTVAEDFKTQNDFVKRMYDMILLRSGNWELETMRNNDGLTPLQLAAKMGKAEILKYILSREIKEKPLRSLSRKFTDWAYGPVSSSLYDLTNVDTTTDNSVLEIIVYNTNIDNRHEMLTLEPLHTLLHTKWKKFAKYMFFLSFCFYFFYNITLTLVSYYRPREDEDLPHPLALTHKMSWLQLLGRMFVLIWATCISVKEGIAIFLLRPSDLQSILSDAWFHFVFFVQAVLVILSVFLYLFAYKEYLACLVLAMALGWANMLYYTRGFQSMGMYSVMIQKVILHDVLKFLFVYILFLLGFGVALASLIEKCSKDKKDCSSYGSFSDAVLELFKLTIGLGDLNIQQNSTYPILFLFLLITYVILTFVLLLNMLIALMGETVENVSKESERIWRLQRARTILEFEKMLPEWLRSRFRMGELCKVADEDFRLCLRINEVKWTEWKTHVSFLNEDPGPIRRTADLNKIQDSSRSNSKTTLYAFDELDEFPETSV
Experimental: (§1) HEK293T cell line (ATCC CRL-1 1268) was transiently transfected with plasmid DNA containing polynucleotide encoding […] (SEQ. ID. NO: 1), rTRPV2 (SEQ. ID. NO: 2), mTRPV3 (SEQ. ID. NO: 3), rTRPV4 (SEQ. ID. NO: 4), mTRPM8 (SEQ. ID. NO: 5) or mTRPA1 (SEQ. ID. NO: 6).
(§2) Particularly, the HEK293T cell line was transiently transfected with individual TRP channel plasmid (pcDNA3.1 containing polynucleotide encoding rTRPV1, rTRPV2, mTRPV3, rTRPV4, mTRPM8 or mTRPA1), and 600 ng/well of pCDNA3 (Invitrogen Corp., USA; containing green fluorescent protein (GFP) cDNA) using Fugene6 (Roche Diagnostics, USA) according to manufacturer's instruction. The transformed cells were cultured in DMEM/F12 containing 10% FBS and 1% penicillin/streptomycin in a CO2 incubator for 24 hours. The cells were replated onto poly-L-lysine-coated glass coverslips, followed by further culture for 10-24 hours.
(§3) Particularly, the transfected cell line of Example <3-1> and Example <3-2> was loaded with Fluo-3AM (5 μM; Sigma Aldrich, USA) in the bath solution (140 mM NaCl, 5 mM KCl, 2 mM CaCl2, 1 mM MgCl2, 10 mM HEPES; adjusted to pH 7.4 with NaOH) containing 0.02% pluronic acid (Invitrogen, USA) at 37° C. for 1 hour. […]

rTRPV1 = biological target: T2, rTRPV1 (Rattus norvegicus, UniProt O35433); experiment: Fluo-3 calcium imaging in TRPV1 transfected HEK293T cell line; format: cell-based; settings: 100 μM probenecid
T2 construct: expressed in transfected cells; host or cells: HEK293T (ATCC CRL-11268)
Experimental: as §1, §2, §3

Oral aversion test = format: in vivo, ICR mice
Experimental: Oral aversion test was confirmed according to the methods of Caterina M J, et al. (Science 288:306-313, 2000) and Kwan K Y, et al. (Neuron 50: 277-289, 2006). Particularly, adult ICR mice randomly selected and raised were allowed to drink water containing 0.125% saccharin (Sigma Aldrich, USA) only for three hours a day. Water and feed were provided for 4 days. Water and feed consumptions were measured everyday. On day 4, water containing 20 mM probenecid was provided for 3 hours. Statistical data were analyzed by two-tailed, unpaired Student's-t-test and the results were presented by mean ±S.E.M.

rTRPV2 = biological target: T3, rTRPV2 (Rattus norvegicus, UniProt Q9WUD2, A713V/L151P/T158I); experiment: Fluo-3 calcium imaging in TRPV2 transfected HEK293T cell line; format: cell-based
T3 construct: expressed in transfected cells; host or cells: HEK293T (ATCC CRL-11268)
T3 sequence (Q9WUD2 1-761 L151P/T158I/A713V): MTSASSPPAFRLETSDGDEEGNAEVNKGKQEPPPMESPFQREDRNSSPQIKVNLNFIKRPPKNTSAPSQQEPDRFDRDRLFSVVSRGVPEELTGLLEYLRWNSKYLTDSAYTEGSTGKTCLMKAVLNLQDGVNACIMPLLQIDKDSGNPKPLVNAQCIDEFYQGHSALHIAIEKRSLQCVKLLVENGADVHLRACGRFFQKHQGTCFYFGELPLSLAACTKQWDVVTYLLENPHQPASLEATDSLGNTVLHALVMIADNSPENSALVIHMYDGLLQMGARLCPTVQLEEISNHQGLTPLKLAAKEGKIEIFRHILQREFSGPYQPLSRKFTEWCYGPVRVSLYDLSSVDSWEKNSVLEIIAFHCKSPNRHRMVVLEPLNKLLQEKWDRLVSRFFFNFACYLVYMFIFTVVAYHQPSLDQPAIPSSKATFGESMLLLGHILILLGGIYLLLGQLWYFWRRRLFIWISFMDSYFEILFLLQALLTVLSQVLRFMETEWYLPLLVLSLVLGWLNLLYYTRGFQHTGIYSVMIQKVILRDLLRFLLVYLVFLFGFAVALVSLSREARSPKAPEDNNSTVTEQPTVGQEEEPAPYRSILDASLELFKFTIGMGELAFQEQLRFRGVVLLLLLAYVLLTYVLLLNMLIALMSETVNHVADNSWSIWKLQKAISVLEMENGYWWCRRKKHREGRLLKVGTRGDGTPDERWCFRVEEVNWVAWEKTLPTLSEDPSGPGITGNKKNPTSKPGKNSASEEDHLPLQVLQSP
Experimental: as §1, §2
The TRPV2 transfected cell line prepared in Example 1 was treated with 100 μM probenecid and 300 μM 2-APB.
The TRPV2 transfected cell line prepared in Example 1 was treated with probenecid at different concentrations from 0.1 to 1,000 μM.
Particularly, the transfected cell line of Example <3-1> and Example <3-2> was loaded with Fluo-3AM (5 μM; Sigma Aldrich, USA) in the bath solution (140 mM NaCl, 5 mM KCl, 2 mM CaCl2, 1 mM MgCl2, 10 mM HEPES; adjusted to pH 7.4 with NaOH) containing 0.02% pluronic acid (Invitrogen, USA) at 37° C. for 1 hour. Calcium imaging was performed with a confocal microscope (LSM5 Pascal, Carl Zeiss, Germany), and time-lapse images (excitation 488 nm/emission 514 nm) were collected every 3 seconds using Carl Zeiss ratio tool software (Carl Zeiss, Germany).
The TRPA1, TRPV1, TRPV2, TRPV3, TRPV4 and TRPM8 transfected cell lines prepared by the method of Example 1 and the non-transfected HEK cell line (control group) were treated with 100 μM probenecid. Calcium imaging was performed with the transfected cell lines treated as the above by the same manner as described in Example <3-3>.

T2 sequence (O35433 whole entry): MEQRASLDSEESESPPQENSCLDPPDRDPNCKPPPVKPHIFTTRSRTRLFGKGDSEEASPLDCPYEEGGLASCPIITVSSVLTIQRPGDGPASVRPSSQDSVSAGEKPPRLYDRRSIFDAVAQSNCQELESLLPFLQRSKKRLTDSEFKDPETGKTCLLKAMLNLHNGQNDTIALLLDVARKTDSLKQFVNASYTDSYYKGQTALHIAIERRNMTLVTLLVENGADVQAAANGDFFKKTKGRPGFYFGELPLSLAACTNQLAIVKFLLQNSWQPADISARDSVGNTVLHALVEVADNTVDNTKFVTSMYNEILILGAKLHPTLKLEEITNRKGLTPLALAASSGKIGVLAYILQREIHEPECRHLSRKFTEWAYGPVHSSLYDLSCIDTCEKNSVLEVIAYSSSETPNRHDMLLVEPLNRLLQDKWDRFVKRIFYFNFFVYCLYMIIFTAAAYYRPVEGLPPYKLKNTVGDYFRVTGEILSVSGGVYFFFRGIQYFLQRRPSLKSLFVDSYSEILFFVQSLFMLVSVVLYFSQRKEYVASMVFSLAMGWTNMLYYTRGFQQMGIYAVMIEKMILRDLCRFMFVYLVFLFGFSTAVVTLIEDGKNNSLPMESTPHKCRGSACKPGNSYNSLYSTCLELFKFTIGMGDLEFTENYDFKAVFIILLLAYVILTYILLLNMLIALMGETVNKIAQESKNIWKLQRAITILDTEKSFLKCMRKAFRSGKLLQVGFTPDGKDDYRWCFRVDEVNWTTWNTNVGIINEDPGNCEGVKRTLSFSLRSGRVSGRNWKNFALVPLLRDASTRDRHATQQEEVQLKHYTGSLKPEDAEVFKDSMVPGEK

TRPV2 activation (calcium imaging) (rTRPV2; 100 μM probenecid): activated | n (Hill plot of calcium influx responses) (rTRPV2; n=12-62 per experimental value): 2.8 | Kd (rTRPV2; n=12-62 per experimental value, read-out: Kd (Hill plot of calcium influx responses)): 31.9 µM | maximal effective dose (rTRPV2; probenecid 0.1 to 1,000 μM, calcium influx): about 1 mM | EC50 (rTRPV2; probenecid 0.1 to 1,000 μM, calcium influx, read-out: EC50 (effective concentration 50%) on TRPV2): 31.9 µM
SMILES: CCCN(CCC)S(=O)(=O)c1ccc(C(=O)O)cc1 [probenecid]
TRPV3 activation (calcium imaging) (mTRPV3): only TRPV2 was activated; also recorded: not confirmed | TRPV1 activation (calcium imaging) (rTRPV1): only TRPV2 was activated; also recorded: not confirmed | oral aversion (Oral aversion test; water containing 20 mM probenecid): did not induce oral aversion | water and feed consumption, treated versus not treated group (Oral aversion test; water containing 20 mM probenecid for 3 hours on day 4, n=5): no significant difference
